Data on 1 molecule can be found in patent US6800794B1, “Nucleic acid comprising the sequence of a promoter unductible by stress and a gene sequence coding for a stilbene synthase” (Champagne Moet & Chandon, priority 1998, dated 2004).

Assay [1] has as its system Botrytis cinerea mycelium, strain 916T. The assay can be described thus: Inhibition of the growth of Botrytis cinerea mycelium on malt medium containing resveratrol. In kind it is cell-based. As to the method: FIG. 9: Inhibition of the growth of Botrytis cinerea mycelium, strain 916T, after 7 days at 20° C.
The mycelium is cultured on a malt/glucose medium containing different concentrations of resveratrol.
A study was carried out of the action of the molecule on the growth of mycelial hyphae of Botrytis cinera in culture on a malt/agar medium containing a resveratrol dilution range of from 10^−1 M to 3.7.10^−3 M, with the hyphae being incubated at ambient temperature for 7 days. […] However, this inhibition […] progressively after 7 days of culture under these conditions, which are otherwise very favourable to the growth of the fungus. After 20 days, the fungus finally infects the whole of the culture surface.

Assay [2] deals with zoospores of Plasmopora viticola. Conditions: according to DAÏ (1994); cited from earlier work.
The test system of a further assay is Botrytis cinerea conidia. The settings on record: according to PONT and PEZET (1990); cited from earlier work.

For the molecule `Oc1ccc(C=Cc2cc(O)cc(O)c2)cc1` [resveratrol], in assay [1] (Botrytis cinerea, 168 h, read-out: inhibitory effect on growth of mycelial hyphae (IC50), malt/agar medium, 7 days, ambient temperature (FIG. 9: 20° C.)), the IC50 (in general, the concentration that inhibits the measured activity by half) was found to be 500 µM. Besides, the “inhibitory activity on the growth of the mycelium” value in assay [1] (at 37 μmol.^−1, 7 days) is recorded as “very slight inhibitory activity”. In addition, the “concentrations giving an exponential decrease in the mean growth diameter of the fungus” value in assay [1] (malt/agar medium, 7 days) was “greater than 125 μmol.1^−1”. Further, in assay [2], the “effect on the development of the zoospores” value is reported as “inhibitory effect”. For the same molecule, the “blocking of germination of conidia” value in the assay on Botrytis cinerea conidia is “does not block”.
